Source: paper PMC12095705, “Diversity and enzymatic activity of Polish beehive products microbiota, and characterization of a novel β-galactosidase from Paenibacillus sp. 8” (Scientific Reports, 2025)

Biological target: T1, BgaP β-galactosidase
T1 construct: recombinant full-length, 675 amino acids (GenBank XED97098)
Test: inhibition of ONPG hydrolysis by purified enzyme, […] °C, pH […]; Lineweaver-Burk
Type: biochemical, Paenibacillus sp. 8

Structure (SMILES) | Ki
OC[C@H]1OC(O)[C@H](O)[C@@H](O)[C@@H]1O (some centres unmarked) [glucose] | 27.3 mM
OC[C@H]1OC(O)[C@H](O)[C@@H](O)[C@H]1O (some centres unmarked) [galactose] | 6.99 mM
